This note sets out measurements from ChEMBL document CHEMBL5096185, “Structure-Guided Development of Small-Molecule PRC2 Inhibitors Targeting EZH2-EED Interaction” (J Med Chem, 2021).

Usually IC50 stands for the point on the concentration scale where inhibition reaches its midpoint. The term Kd denotes the concentration at which binding is half-saturated.

A short description of assay [1]: Inhibition of FITC-labeled EZH2 (40 to 63 residues) (unknown origin)-recombinant N-terminal 6His-SUMO tagged human EED (81 to 441 residues) expressed in Escherichia coli BL21 (DE3) cells protein-protein interaction incubated for 2 hrs by fluorescence polarization competition assay.
For assay [2], the target named is T1, Polycomb protein EED (Homo sapiens, UniProt O75530). The assay can be described thus: Binding affinity to recombinant N-terminal 6His-SUMO tagged human EED (81 to 441 residues) expressed in Escherichia coli BL21 (DE3) cells assessed as dissociation constant measured after 240 sec by SPR-based binding assay.
Target sequence in this assay (O75530 whole entry, the tested form may be a part): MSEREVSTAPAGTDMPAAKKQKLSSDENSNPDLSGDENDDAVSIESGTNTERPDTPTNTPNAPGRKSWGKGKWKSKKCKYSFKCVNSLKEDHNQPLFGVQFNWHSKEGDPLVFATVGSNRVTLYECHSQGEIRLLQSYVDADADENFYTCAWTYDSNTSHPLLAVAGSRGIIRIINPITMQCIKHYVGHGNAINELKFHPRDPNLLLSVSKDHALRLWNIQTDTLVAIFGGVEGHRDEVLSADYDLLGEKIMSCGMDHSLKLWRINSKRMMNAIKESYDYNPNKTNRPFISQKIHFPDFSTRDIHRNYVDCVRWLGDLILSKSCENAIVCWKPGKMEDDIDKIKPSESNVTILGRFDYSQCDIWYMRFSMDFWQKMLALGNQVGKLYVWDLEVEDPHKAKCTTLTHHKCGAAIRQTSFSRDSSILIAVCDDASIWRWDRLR
The target in assay [3] is T1, Polycomb protein EED. Briefly: Binding affinity to recombinant N-terminal 6His-SUMO tagged human EED (81 to 441 residues) expressed in Escherichia coli BL21 (DE3) cells assessed as binding constant (Kon) measured after 120 sec by SPR-based binding assay.
Target sequence in this assay (O75530 2-441 limits assumed): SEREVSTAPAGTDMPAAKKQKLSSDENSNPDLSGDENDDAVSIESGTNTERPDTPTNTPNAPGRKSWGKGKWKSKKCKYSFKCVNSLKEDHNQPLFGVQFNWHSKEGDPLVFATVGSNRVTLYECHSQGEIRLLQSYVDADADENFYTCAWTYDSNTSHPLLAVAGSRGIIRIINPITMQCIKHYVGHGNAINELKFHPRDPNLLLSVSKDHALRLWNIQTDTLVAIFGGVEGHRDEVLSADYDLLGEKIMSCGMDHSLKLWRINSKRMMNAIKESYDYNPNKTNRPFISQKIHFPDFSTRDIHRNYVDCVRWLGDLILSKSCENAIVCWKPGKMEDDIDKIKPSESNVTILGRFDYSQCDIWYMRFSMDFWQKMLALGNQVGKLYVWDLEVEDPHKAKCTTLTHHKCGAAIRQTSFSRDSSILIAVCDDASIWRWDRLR
Assay [4] addresses T1, Polycomb protein EED. The assay can be described thus: Binding affinity to recombinant N-terminal 6His-SUMO tagged human EED (81 to 441 residues) expressed in Escherichia coli BL21 (DE3) cells assessed as binding constant (Koff) measured after 120 sec by SPR-based binding assay.
Target sequence in this assay (O75530 2-441 limits assumed): as above
The species entered for assay [5] is Homo sapiens. The assay can be described thus: Binding affinity to EZH2 (39 to 68 residues) (unknown origin)/recombinant N-terminal 6His-SUMO tagged human EED (81 to 441 residues) expressed in Escherichia coli BL21 (DE3) cells assessed as T1rho signal recovery at 50 to 100 uM by NMR-based binding assay. The following applies: dose 50-100 µM.
Assay [6] relates to Pfeiffer. Briefly: Inhibition of PRC2 in human Pfeiffer cells assessed as reduction in EZH2 protein level measured after 72 hrs by Western blot analysis. The following applies: dose 0.6-10 µM, DDE = dose-dependent effect. In kind it is cell-based. (In general: In western blotting, separated proteins are transferred to a membrane and probed.)
In assay [7] the test system is Pfeiffer. The assay can be described thus: Inhibition of PRC2 in human Pfeiffer cells assessed as reduction in EED protein level measured after 72 hrs by Western blot analysis. In kind it is cell-based. To be noted: dose 0.6-10 µM, DDE = dose-dependent effect.
For assay [8], the system named is Pfeiffer. Briefly: Inhibition of PRC2 in human Pfeiffer cells assessed as reduction in SUZ12 protein level measured after 72 hrs by Western blot analysis. In kind it is cell-based. To be noted: dose 0.6-10 µM, DDE = dose-dependent effect.
The test system of assay [9] is Pfeiffer. Briefly: Inhibition of PRC2 in human Pfeiffer cells assessed as reduction in H3K27me3 level measured after 72 hrs by Western blot analysis. The class given is cell-based. To be noted: dose 0.6-10 µM, DDE = dose-dependent effect.
The test system of assay [10] is Pfeiffer. Briefly: Antiproliferative activity against human Pfeiffer cells assessed as inhibition of cell growth incubated for 72 hrs by CellTiter-Glo assay. The class given is functional, cell-based. (In general: In ATP-based viability assays light output follows the ATP content of the culture.)
The subject of assay [11] is KARPAS-422. The assay can be described thus: Antiproliferative activity against human KARPAS-422 cells assessed as inhibition of cell growth incubated for 72 hrs by CellTiter-Glo assay. In kind it is functional, cell-based. The following applies: KARPAS-422, 72 h.
The test system of assay [12] is SUD4. The assay can be described thus: Antiproliferative activity against human SU-DHL-4 cells assessed as inhibition of cell growth incubated for 72 hrs by CellTiter-Glo assay. The class given is functional, cell-based. To be noted: SU-DHL-4, 72 h.
The subject of assay [13] is DB. The assay can be described thus: Antiproliferative activity against human DB cells assessed as inhibition of cell growth incubated for 72 hrs by CellTiter-Glo assay. The class given is functional, cell-based.
The test system of assay [14] is Pfeiffer. The assay can be described thus: Induction of cell cycle arrest in human Pfeiffer cells assessed as accumulation of cells in G0/G1 phase at 5 uM incubated for 2 days by PI/RNase staining based analysis (reference value: 52.3%). To be noted: time 2 day. The class given is functional.
Assay [15] has as its system SUD4. Briefly: Induction of cell cycle arrest in human SU-DHL-4 cells assessed as accumulation of cells in G0/G1 phase at 5 uM incubated for 3 days by PI/RNase staining based analysis (reference value: 62.2 %). In kind it is functional. The following applies: time 3 day.
In assay [16] the test system is Pfeiffer. Briefly: Induction of cell cycle arrest in human Pfeiffer cells assessed as decrease of cells in G2/M phase at 5 uM incubated for 2 days by PI/RNase staining based analysis (reference value: 14.9 %). The following applies: time 2 day. The arrangement: scale not given: the % may be the effect or the level left. The class given is functional.
Assay [17] relates to Pfeiffer. Briefly: Induction of cell cycle arrest in human Pfeiffer cells assessed as decrease of cells in S phase at 5 uM incubated for 2 days by PI/RNase staining based analysis (reference value: 32.8 %). The class given is functional. The arrangement: scale not given: the % may be the effect or the level left. The following applies: time 2 day.
Assay [18] has as its system SUD4. Briefly: Induction of cell cycle arrest in human SU-DHL-4 cells assessed as decrease of cells in G2/M phase at 5 uM incubated for 3 days by PI/RNase staining based analysis (reference value: 8.6 %). The following applies: time 3 day. Also noted: scale not given: the % may be the effect or the level left. In kind it is functional.
Assay [19] deals with SUD4. Briefly: Induction of cell cycle arrest in human SU-DHL-4 cells assessed as decrease of cells in G2/M phase at 5 uM incubated for 3 days by PI/RNase staining based analysis (reference value: 29.2 %). The arrangement: scale not given: the % may be the effect or the level left. In kind it is functional. The following applies: time 3 day.

Activity calls are given as the source filed them. The calls are words filed in the database; no cut-off is given here. Some results are limits rather than exact numbers.

With `COc1ccc(CCN2CC[C@H](Nc3nc4ccccc4n3Cc3ccc(F)cc3)C2)cc1`, in assay [1], the IC50 stood at 4.56 µM.

In the case of `COc1ccc(CCN2CCC(Nc3nc4c(N)cccc4n3Cc3ccc(F)cc3)CC2)cc1`, the half-maximal inhibitory concentration (IC50) in assay [1] came out at 48.6 µM.

Take `Oc1ccccc1CCN1CCC(Nc2nc3ccccc3n2Cc2ccc(F)cc2)CC1`: in assay [1], the half-inhibitory concentration (IC50) was 175 µM.

For the compound `COc1ccc(CCN2CCC(Nc3nc4ccccc4n3Cc3ccc(F)cc3[N+](=O)[O-])CC2)cc1`, the IC50 in assay [1] is 80.1 µM.

Consider `COc1ccc(CCN2CCC(Nc3nc4ccc(N)cc4n3Cc3ccc(F)cc3)CC2)cc1`, for which the IC50 in assay [1] came to 64.7 µM.

For `COc1ccc(CCN2CCC(Nc3nc4cccc(N)c4n3Cc3ccc(F)cc3)CC2)cc1`, in assay [1], the 50% inhibitory concentration (IC50) was 73.8 µM.

`COc1ccc(CCN2CC(Nc3nc4ccccc4n3Cc3ccc(F)cc3)C2)cc1`: the IC50 in assay [1] stood at 21.5 µM.

In the case of `Cc1ccc(CCN2CCC(Nc3nc4ccccc4n3Cc3ccc(F)cc3)CC2)cc1`, in assay [1], the half-inhibitory concentration (IC50) is 87.6 µM.

Take `COc1ccc(CN[C@H]2CC[C@H](Nc3nc4ccccc4n3Cc3ccc(F)cc3)CC2)cc1`: the IC50 in assay [1] was found to be 78.7 µM.

For `COc1ccc(CCN2CCC(Nc3nc4ccccc4n3Cc3ccc(C(F)(F)F)cc3)CC2)cc1`, the IC50 in assay [1] was found to be 60.8 µM.

Turning to `O=[N+]([O-])c1cccc(CCN2CCC(Nc3nc4ccccc4n3Cc3ccc(F)cc3)CC2)c1`, the IC50 in assay [1] is 341 µM.

`COc1ccc(CCN2CCC(Nc3nc4ccccc4n3Cc3ccc(N)cc3)CC2)cc1`: the IC50 in assay [1] is 221 µM.

`COc1ccc(CCN2CCC(Nc3nc4ccccc4n3Cc3ccc([N+](=O)[O-])cc3)CC2)cc1`: the half-inhibitory concentration (IC50) in assay [1] came out at 66.3 µM.

For the compound `COc1ccc(CN[C@H]2CC[C@@H](Nc3nc4ccccc4n3Cc3ccc(F)cc3)CC2)cc1`, the concentration for half-maximal inhibition (IC50) in assay [1] was over 500 µM.

For `COc1ccc(CCN2CCC(Nc3nc4cc(N)ccc4n3Cc3ccc(F)cc3)CC2)cc1`, in assay [1], the IC50 came to 63.6 µM.

For `COc1ccc(CCN2CCC(Nc3nc4ccccc4n3Cc3ccccc3)CC2)cc1`, the half-maximal inhibitory concentration (IC50) in assay [1] is 131 µM.

Turning to `COc1ccc(CCNCCNc2nc3ccccc3n2Cc2ccc(F)cc2)cc1`, the IC50 in assay [1] worked out at 11.6 µM.

`COc1ccc(CCN2CCC(Nc3nc4ccccc4n3Cc3ccc(F)c([N+](=O)[O-])c3)CC2)cc1`: the IC50 in [1] was determined as 61.6 µM.

On to `COc1ccc(CNc2ccc(Nc3nc4ccccc4n3Cc3ccc(F)cc3)cc2)cc1`, for which the half-maximal inhibitory concentration (IC50) in assay [1] was 33.8 µM.

Turning to `COc1ccc(CCN2CCC(Nc3nc4ccccc4n3Cc3ccc(F)cc3)CC2)cc1` [ASTEMIZOLE], the IC50 in [1] worked out at 74.2 µM.

As for `COc1ccc(CCN2CCC(Nc3nc4ccccc4n3Cc3ccc(F)cc3)C2)cc1` (centres undefined), in [2], the Kd amounted to 4.56 µM. Besides, the figures for the K in assay [3] and in [4] were 4500 M⁻¹ s⁻¹ and 0.0205 s⁻¹, respectively. Moreover, the result in assay [5] was Active. Besides, the inhibition entry in [6], in [7], in assay [8] and in [9] was “Dde” each time. Also, the 50% inhibitory concentration (IC50) in assay [10] turned out to be 3.77 µM; in assay [11], 5.97 µM; in assay [12], 5.87 µM; in assay [13] it was 9.62 µM. Moreover, the Activity in [14] came to 76.2%; in assay [15], 84%; in assay [16], 6.2%; in [17], 17.6%; in assay [18] it was 0%; in assay [19], 16%.

Take `COc1ccc(CNc2ccc(Nc3nc4ccccc4n3Cc3ccc(F)cc3)cn2)cc1`: in assay [1], the half-maximal inhibitory concentration (IC50) was determined as 32.5 µM.

In the case of `COc1ccc(CCNCCCNc2nc3ccccc3n2Cc2ccc(F)cc2)cc1`, the half-inhibitory concentration (IC50) in assay [1] is 464 µM.

In the case of `Oc1ccc(CCN2CCC(Nc3nc4ccccc4n3Cc3ccc(F)cc3)CC2)cc1` [DESMETHEYLASTEMIZOLE], in assay [1], the IC50 was found to be 190 µM.

Turning to `COc1ccc(CCN2CCC(Nc3nc4ccccc4n3Cc3ccc(F)c(F)c3)CC2)cc1`, the IC50 in assay [1] was found to be 56.5 µM.

Regarding `COc1ccc(CCN2CCC(Nc3nc4ccccc4n3Cc3ccc(C)cc3)CC2)cc1`, the IC50 in assay [1] is 153 µM.

Turning to `Oc1cccc(CCN2CCC(Nc3nc4ccccc4n3Cc3ccc(F)cc3)CC2)c1`, in assay [1], the IC50 was found to be 61.5 µM.
